The term IC50 denotes the concentration needed to halve the response being measured.

Here are results for two molecules from US7820683B2, “4-(1H-indazol-5-yl-amino)-quinazoline compounds as erbB receptor tyrosine kinase inhibitors for the treatment of cancer” (AstraZeneca AB, priority 2005, dated 2010).

The structures appear in SMILES notation.

For assay [1], the target named is T1, erbB2 tyrosine kinase (Homo sapiens, UniProt P04626).
T1 construct: Recombinant intracellular fragments of EGFR, erbB2 and erbB4; made in house; host or cells: baculovirus/Sf21 insect cells (cleared lysate used)
T1 sequence (P04626 676-1255 limits assumed): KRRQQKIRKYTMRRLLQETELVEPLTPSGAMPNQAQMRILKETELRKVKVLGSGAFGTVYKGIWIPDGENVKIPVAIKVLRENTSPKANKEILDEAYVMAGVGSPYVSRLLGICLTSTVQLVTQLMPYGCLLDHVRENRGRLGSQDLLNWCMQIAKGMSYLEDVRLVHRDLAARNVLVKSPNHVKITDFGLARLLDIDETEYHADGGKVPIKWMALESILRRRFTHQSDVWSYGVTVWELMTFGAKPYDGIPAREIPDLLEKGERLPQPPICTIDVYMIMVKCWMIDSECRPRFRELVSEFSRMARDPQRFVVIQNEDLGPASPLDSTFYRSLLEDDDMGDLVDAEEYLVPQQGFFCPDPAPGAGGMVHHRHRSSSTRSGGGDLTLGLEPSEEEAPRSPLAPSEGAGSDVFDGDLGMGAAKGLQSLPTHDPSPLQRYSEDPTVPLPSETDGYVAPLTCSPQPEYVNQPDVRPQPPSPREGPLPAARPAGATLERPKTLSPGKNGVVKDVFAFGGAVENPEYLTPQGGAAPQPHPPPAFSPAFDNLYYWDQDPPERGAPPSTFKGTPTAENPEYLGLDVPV
The assay can be described thus: Protein tyrosine kinase phosphorylation assay, Test (a), erbB2. The format is biochemical. The settings on record: recombinant intracellular fragment, ATP at Km; read-out: IC50 Test (a): Inhibition of erbB2 tyrosine kinase protein phosphorylation. On the procedure:
(§1) This test measures the ability of a test compound to inhibit the phosphorylation of a tyrosine containing polypeptide substrate by EGFR, erbB2 and erbB4 tyrosine kinase enzyme.
(§2) Recombinant intracellular fragments of EGFR, erbB2 and erbB4 (accession numbers X00588, X03363 and L07868 respectively) were cloned and expressed in the baculovirus/Sf21 system. Lysates were prepared from these cells by treatment with ice-cold lysis buffer (20 mM N-2-hydroxyethylpiperizine-N′-2-ethanesulfonic acid (HEPES) pH7.5, 150 mM NaCl, 10% glycerol, 1% Triton X-100, 1.5 mM MgCl2, 1 mM ethylene glycol-bis(β-aminoethyl ether) N′,N′,N′,N′-tetraacetic acid (EGTA), plus protease inhibitors and then cleared by centrifugation.
(§3) Constitutive kinase activity of these recombinant proteins was determined by their ability to phosphorylate a synthetic peptide (made up of a random co-polymer of Glutamic Acid, Alanine and Tyrosine in the ratio of 6:3:1). […]
(§4) The immobilised phospho-peptide product of the reaction was detected by immunological methods. […]
(§5) Kinase inhibition for a given compound was expressed as an IC50 value. […] The range of phosphorylation was calculated from the positive (vehicle plus ATP) and negative (vehicle minus ATP) control values.

The target of assay [2] is T2, EGFR tyrosine kinase (Homo sapiens, UniProt P00533).
T2 construct: Recombinant intracellular fragments of EGFR, erbB2 and erbB4; made in house; host or cells: baculovirus/Sf21 insect cells (cleared lysate used)
T2 sequence (P00533 669-1210 limits assumed): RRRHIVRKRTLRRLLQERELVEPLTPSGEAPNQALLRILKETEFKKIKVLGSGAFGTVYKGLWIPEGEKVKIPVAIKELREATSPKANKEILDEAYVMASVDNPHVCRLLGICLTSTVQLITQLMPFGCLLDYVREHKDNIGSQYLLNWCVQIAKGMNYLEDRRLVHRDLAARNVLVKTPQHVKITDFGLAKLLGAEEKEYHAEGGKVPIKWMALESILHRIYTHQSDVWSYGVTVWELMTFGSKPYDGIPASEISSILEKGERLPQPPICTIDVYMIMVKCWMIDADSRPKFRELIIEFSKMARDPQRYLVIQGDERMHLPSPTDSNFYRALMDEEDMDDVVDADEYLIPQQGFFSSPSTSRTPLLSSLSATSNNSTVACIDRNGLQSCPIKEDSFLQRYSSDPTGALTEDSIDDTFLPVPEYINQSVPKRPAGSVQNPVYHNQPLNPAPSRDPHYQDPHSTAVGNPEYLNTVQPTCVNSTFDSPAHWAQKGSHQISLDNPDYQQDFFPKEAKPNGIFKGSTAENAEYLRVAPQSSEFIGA
The assay is described as follows: Protein tyrosine kinase phosphorylation assay, Test (a), EGFR. To be noted: recombinant intracellular fragment, ATP at Km; read-out: IC50 Test (a): Inhibition of EGFR tyrosine kinase protein phosphorylation. The format is biochemical. As to the method: as §1, §2, §3, §4, §5

The test system of assay [3] is phosphorylation of erbB2 in a MCF7 derived cell line (Clone 24 cells). The assay can be described thus: Clone 24 phospho-erbB2 cell assay, Test (c). The format is cell-based. To be noted: Homo sapiens; MCF7 derived Clone 24 cells, 4 hours; read-out: IC50 Test (c): Inhibition of erbB2 tyrosine kinase protein phosphorylation. As to the method:
This immunofluorescence end point assay measures the ability of a test compound to inhibit the phosphorylation of erbB2 in a MCF7 (breast carcinoma) derived cell line which was generated by transfecting MCF7 cells with the full length erbB2 gene using standard methods to give a cell line that overexpresses full length wild type erbB2 protein (hereinafter ‘Clone 24’ cells).
Clone 24 cells were cultured in Growth Medium (phenol red free Dulbecco's modified Eagle's medium (DMEM) containing 10% foetal bovine serum, 2 mM glutamine and 1.2 mg/ml G418) in a 7.5% CO2 air incubator at 37° C. […] Cell density was measured using a haemocytometer and viability was calculated using Trypan Blue solution before being further diluted in Growth Medium and seeded at a density of 1×10^4 cells per well (in 100 ul) into clear bottomed 96 well plates (Packard, No. 6005182). […]
Immunostaining was performed at room temperature. […] Plates were analysed within six hours of completing the immunostaining.
The Fluorescence signal is each well was measured using an Acumen Explorer Instrument (Acumen Bioscience Ltd.), a plate reader that can be used to rapidly quantitate features of images generated by laser-scanning. […]

Regarding `C[C@@H](Oc1cccc2ncnc(Nc3ccc4c(cnn4Cc4ccccn4)c3)c12)C(=O)N(C)CCO` [Example 1, (2R)—N-(2-Hydroxyethyl)-N-methyl-2-[(4-{[1-(pyridin-2-ylmethyl)-1H-indazol-5-yl]amino}quinazolin-5-yl)oxy]propanamide], the IC50 was 12 nM in assay [1] and 210 nM in assay [2].
As for `C[C@@H](Oc1cccc2ncnc(Nc3ccc4c(cnn4Cc4ccccn4)c3)c12)C(=O)N1CCOCC1` [Example 2, 5-[(1R)-1-Methyl-2-morpholin-4-yl-2-oxoethoxy]-N-[1-(pyridin-2-ylmethyl)-1H-indazol-5-yl]quinazolin-4-amine], in assay [3], the IC50 is 35 nM.
